Like-named read-outs stand apart in the source and are kept apart here.
How the values were obtained:
cornea = test: Change of thickness of cornea in human, long-term eyedrop administration test; assay type: in vivo
Method: In a long-term administration test of Compound B in a subject having ophthalmologic disease, the influence on the cornea was examined (27-34 examples). In other words, in an group administered an eyedrop consisting of 0.4% Compound B twice a day for 52 weeks, the corneal thickness was measured using pachymeter before starting administration (week 0), 2 weeks after starting administration, 4 weeks after starting administration, and every 4 weeks thereafter. Measurement was performed five times, and the mean value calculated from the five measurements was adopted. In the measuring day, the drop was instilled in the eye at 9:00 and measurement was performed at 11:00. Note that at week 28, week 52, and during the follow-up (7-28 days after the last administration day), measurement was performed twice at 9:00 (at week 28 and week 52, it was done before the instillation) and 11:00. The upper part in FIG. 1 represents the result from the right eye, and the lower part in FIG. 1 represents the result from the left eye. The vertical axis represents changing values (μm) from week 0, and the horizontal axis represents the week for administration. At week 28, week 52, and during the follow-up (f/u), the measurement at 9:00 is represented with (0) and the measurement at 11:00 is represented with (2).

[1] = system: rabbit corneal endothelial cell; conditions: reported in Patent Document 1; cited from earlier work
Rho kinase [2] = conditions: disclosed in Patent Document 3; read-out: 50% inhibitory concentration (IC50) for Rho kinase; cited from earlier work
Rho kinase [3] = conditions: according to Non-Patent Document 7; read-out: 50% inhibitory concentration (IC50) for Rho kinase; cited from earlier work

Compound: C[C@H]1CNCCCN1S(=O)(=O)c1cccc2cncc(F)c12 [Compound B, (S)-(−)-1-(4-fluoro-5-isoquinolinesulfonyl)-2-methyl-1,4-homopiperazine]
- thickness of the cornea during the period for administration (cornea; human subjects with ophthalmologic disease, 0.4% eyedrop twice a day for 52 weeks, pachymeter, vs week 0): decreased
- thickness of the cornea during the continued administration (cornea; human, 0.4% eyedrop twice a day for 52 weeks): held at a nearly constant value
- thickness of the cornea before instillation (0) (cornea; human, week 28 and week 52, measured at 9:00 before instillation): had a tendency to return to the value before starting administration
- thickness of the cornea 2 hours after instillation (2) (cornea; human, week 28 and week 52, measured at 11:00): decreased

Compound: O=S(=O)(c1cccc2cnccc12)N1CCCNCC1 [fasudil, 1-(5-isoquinolinesulfonyl)-1,4-homopiperazine]
- adhesive property of a rabbit corneal endothelial cell [1]: enhanced

Compound: CC1CNCCCN1S(=O)(=O)c1cccc2cncc(F)c12 (centres unmarked) [Compound A, 1-(4-fluoro-5-isoquinolinesulfonyl)-2-methyl-1,4-homopiperazine]
- IC50 (Rho kinase [2]): 200 nM

Compound: C[C@@H](N)c1ccc(C(=O)Nc2ccnc3[nH]ccc23)cc1 [Compound Y-33983, (R)—(+)—N-(1H-pyrrolo[2,3-b]pyridin-4-yl)-4-(1-aminoethyl)benzamide]
- IC50 (Rho kinase [3]): 3.6 nM

Compound: CC(N)[C@H]1CC[C@H](C(=O)Nc2ccncc2)CC1 (single isomer, unassigned; (+)) [Compound Y-27632, (+)-trans-4-(1-aminoethyl)-1-(4-pyridylaminocarbonyl)cyclohexane]
- IC50 (Rho kinase [3]): 110 nM

Source: patent publication US10034885B2, “Corneal thickness modulating agent” (KOWA COMPANY, LTD., priority 2014, dated 2018)
